Test [1] has as its target T1, Pancreatic triacylglycerol lipase (Sus scrofa) (UniProt P00591).
T1 sequence (whole entry): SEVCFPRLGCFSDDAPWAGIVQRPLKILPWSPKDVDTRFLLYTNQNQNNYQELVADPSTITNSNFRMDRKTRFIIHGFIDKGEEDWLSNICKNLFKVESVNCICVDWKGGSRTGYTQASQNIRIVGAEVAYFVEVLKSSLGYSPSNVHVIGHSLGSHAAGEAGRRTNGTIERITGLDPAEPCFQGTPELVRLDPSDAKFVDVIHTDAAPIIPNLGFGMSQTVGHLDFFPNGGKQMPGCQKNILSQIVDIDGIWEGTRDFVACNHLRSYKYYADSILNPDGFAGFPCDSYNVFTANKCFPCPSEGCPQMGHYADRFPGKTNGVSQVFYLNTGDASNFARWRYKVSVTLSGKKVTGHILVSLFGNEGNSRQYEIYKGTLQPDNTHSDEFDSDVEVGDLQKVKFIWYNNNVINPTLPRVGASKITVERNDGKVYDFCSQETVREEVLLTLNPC
The test can be described thus: Inhibition of porcine pancreatic lipase using p-nitrophenylbutyrate as substrate at 100 uM preincubated for 15 mins prior substrate addition measured after 15 mins by spectrophotometry.

Test [2] deals with T2, Pancreatic triacylglycerol lipase (Sus scrofa, UniProt P00591).
T2 sequence (P00591 whole entry): T1 sequence (whole entry)
Put plainly: Inhibition of porcine pancreatic lipase using p-nitrophenylbutyrate as substrate preincubated for 15 mins prior substrate addition measured after 15 mins by spectrophotometry.

Test [3] concerns the target T1, Pancreatic triacylglycerol lipase (Sus scrofa). The conditions noted are these: 1 uM.
Description: Inhibition of porcine pancreatic lipase using p-nitrophenylbutyrate as substrate at 1 uM preincubated for 15 mins prior substrate addition measured after 15 mins by spectrophotometry
The test system of test [4] is 3T3-L1. The test can be described thus: Antiadipogenic activity in mouse 3T3L1 cells assessed as cell differentiation measuring inhibition of fat accumulation at 100 uM after 8 days by oil red O-staining based spectrophotometry relative to control. The test is classed as functional. The conditions noted are these: 3T3-L1, 192 h.
The subject of test [5] is 3T3-L1. Put plainly: Antiadipogenic activity in mouse 3T3L1 cells assessed as cell differentiation measuring fat accumulation at 100 uM after 8 days by oil red O-staining based spectrophotometry relative to control. It counts as functional.
For test [6], the target named is T1, Pancreatic triacylglycerol lipase (Sus scrofa). Put plainly: Non-competitive inhibition of porcine pancreatic lipase using p-nitrophenylbutyrate as substrate preincubated for 15 mins prior substrate addition measured after 15 mins by Lineweaver-Burk plot analysis.

Calls of active or inactive are those of the source. No cut-off for these calls is given here. A value given as a limit tells only on which side of the number the result lay.

`COc1ccc(C2CCc3ccc(O)cc3O2)cc1O` (stereo not drawn) had an inhibition in test [1] of 24.8%. The compound also showed an IC50 in test [2] greater than 100 µM.
The like results for `COc1ccc(-c2oc3cc(O)ccc3c(=O)c2O)cc1` were, in that order, 21.8% and greater than 100 µM.
As for `COc1ccc(-c2oc3cc(O)ccc3c(=O)c2O)cc1O`, in test [1], the inhibition came out at 38.2%. Also, in test [2], the half-inhibitory concentration (IC50) was greater than 100 µM.
The like results for `Oc1ccc(C2CCc3ccc(O)cc3O2)cc1` (stereo not drawn) were, in that order, 55.6% and 85.1 µM.
In test [3], `CCCCCCCCCCC[C@@H](C[C@@H]1OC(=O)[C@H]1CCCCCC)OC(=O)[C@H](CC(C)C)NC=O` yielded an inhibition of 60.4%.
`COc1ccc(CCCc2ccc(O)cc2)c(O)c1` [BROUSSONIN A] yielded an inhibition in test [1] of 50.7%. The same compound showed an IC50 in test [2] of 98.7 µM.
As to `COc1cc(O)ccc1CCCc1ccc(O)cc1` [BROUSSONIN B], the inhibition in test [1] is 40.4%. Besides, the inhibition at 100 µM in test [4] worked out at 48%. This compound also displayed a half-inhibitory concentration (IC50) in test [2] of 75.4 µM.
In test [1], `COC1=CC(=O)C=CC1(O)CCCc1ccc(O)cc1` (stereo not drawn) [BROUSSONONE A] registered an inhibition of 71.9%. The Activity in test [5] was found to be 66%. Besides, the half-maximal inhibitory concentration (IC50) in test [2] worked out at 28.4 µM. Moreover, in test [6], the inhibition result was “Active”.

One may read the inhibition as the percentage by which the read-out fell short of the control. In general, IC50 refers to the point on the concentration scale where inhibition reaches its midpoint. Low values mean higher potency, high ones lower potency.

The values above are taken from ChEMBL document CHEMBL2016461, “A new pancreatic lipase inhibitor from Broussonetia kanzinoki” (Bioorg Med Chem Lett, 2012).
